The text below walks through data of the NIST ThermoML archive (doi:10.1016/j.fluid.2017.01.024).

“And” between values parts separate entries of the source, which are not always exact repeats. Equal entries are not always repeated. Numbers after ± are expanded uncertainties.

The conditions of this data set: Liquid, Closed cell (Static) method.

`FCF` [difluoromethane]: the vapor or sublimation pressure – broadly, the equilibrium pressure above the liquid or solid – by setting is: (283.15 K) 1107.3 ± 3.5 kPa; (293.15 K) 1474 ± 4.7 kPa; (303.15 K) 1925.8 ± 6.1 kPa; (313.15 K) 2476.2 ± 7.8 kPa; (323.15 K) 3138 ± 9.8 kPa.
`CCF` [fluoroethane]: the “vapor or sublimation pressure” value reads like this: (283.15 K) 601.4 ± 1.4 kPa and 601.4 ± 2 kPa; (288.16 K) 698.2 ± 1.5 kPa; (293.15 K) 805.6 ± 2.6 kPa and 805.6 ± 1.6 kPa; (298.14 K) 924.8 ± 1.7 kPa; (303.15 K) 1057.4 ± 3.3 kPa and 1057.4 ± 1.9 kPa; (308.15 K) 1203.4 ± 2.1 kPa. For the same molecule, the “vapor or sublimation pressure” value was 1363.6 ± 4.3 kPa (313.15 K); 1363.6 ± 2.3 kPa (313.16 K); 1539 ± 2.5 kPa (318.15 K); 1730.6 ± 5.4 kPa and 1730.6 ± 2.8 kPa (323.15 K).
Turning to `C=C(F)C(F)(F)F` [2,3,3,3-tetrafluoro-1-propene], the “vapor or sublimation pressure” value reads like this: (283.15 K) 437.4 ± 1.2 kPa and 437.4 ± 1.6 kPa; (288.15 K) 509.9 ± 1.3 kPa; (293.15 K) 591.7 ± 2 kPa; (293.16 K) 591.7 ± 1.4 kPa; (298.15 K) 681.9 ± 1.4 kPa; (303.15 K) 782.5 ± 2.5 kPa and 782.5 ± 1.6 kPa. The “vapor or sublimation pressure” value reads like this: (308.16 K) 893.6 ± 1.7 kPa; (313.15 K) 1017.8 ± 3.2 kPa; (313.16 K) 1017.8 ± 1.8 kPa; (318.16 K) 1153.2 ± 2 kPa; (323.15 K) 1301.4 ± 4.1 kPa and 1301.4 ± 2.2 kPa.
